Laboratory results: patent US12357626B2, “Anthranilic acid-based compound, and Pin1 inhibitor, therapeutic agent for inflammatory diseases and therapeutic agent for cancer that use the same” (Amenis Bioscience, Inc., priority 2017, dated 2025)

Key:
Pin1 = target: T1, Pin1 (Homo sapiens, UniProt Q13526); experiment: Cell-based evaluation of Pin1 inhibition activity with AMPK phosphorylation level as index (293T cells, Western blot); parameters: key: +++: a higher level of AMPK phosphorylation is promoted, as compared with C1; ++: a similar level of AMPK phosphorylation is promoted, as compared with C1; +: a lower level of AMPK phosphorylation is promoted, as compared with C1; −: no or almost no promotion is found in AMPK phosphorylation; settings: compound at 100 μM, 30 minutes, then 10 mM 2-DG for one hour, pAMPK level compared with C1
T1 construct: endogenous in cells; host or cells: 293T cells
Experimental: To evaluate the inhibitory activity of each compound synthesized in Example 1 against the function of Pin1, a cell-based assay was performed according to the method previously developed by the inventors (Yusuke Nakatsu et al., Journal of Biological Chemistry, 2015, Vol. 290, No. 40, pp. 24255-24266), in which the phosphorylation level of AMPK (AMP-activated protein kinase), a protein whose phosphorylation is inhibited by Pin1, was examined as an index.
Briefly, 293T cells were plated on a collagen-coated 24-well plate. Forty-eight hours later, each compound synthesized in the preceding example (at 100 μM) was added to the plate, and the plate was left to stand in an incubator for 30 minutes. Subsequently, 10 mM 2-DG was added to the plate, and one hour later, each sample was collected with a buffer containing mercaptoethanol and SDS.
SDS-PAGE and blotting were performed, and blocking was then performed with 3% BSA for 1 hour, according to conventional protocols. Subsequently, a pAMPK antibody (Cell Signaling; diluted 1:2000 in Can Get Signal Solution 1, Toyobo) as a primary antibody, and an HRP-linked anti rabbit IgG (GE Healthcare; diluted 1:4000 in Can Get Signal Solution 2, Toyobo) as a secondary antibody were allowed to react at ambient temperature for 1 hour prior to detection.
The inhibitory activity against the function of Pin1 was evaluated by comparing the inhibition levels between each compound and a known Pin1 inhibitor, C1, as indicated below:
(+++): a higher level of AMPK phosphorylation is promoted, as compared with C1;
(++): a similar level of AMPK phosphorylation is promoted, as compared with C1;
(+): a lower level of AMPK phosphorylation is promoted, as compared with C1;
(−): no or almost no promotion is found in AMPK phosphorylation.

[1] = system: non-alcoholic steatohepatitis (NASH) model mice (HFDT); settings: intraperitoneal 2.5 mg/kg/day three times a week
Experimental: Animal experiments were performed using non-alcoholic steatohepatitis (NASH) model mice to test the compounds according to the present invention for the therapeutic effect on NASH.
NASH model mice (hereinafter referred to as “NASH mice”) were produced by feeding a high-fat diet containing trans fatty acids (HFDT) to individual male laboratory mice (C57BL/6J) for 8 weeks. The mice were divided into groups, and animal experiments were performed on a group of mice to which a compound according to the present invention (H-77) was administered intraperitoneally at a dose of 2.5 mg/kg/day three times a week, and a group of mice to which Juglone, a known Pin1 inhibitor, was administered intraperitoneally at a dose of 2.5 mg/kg/day three times a week, and a group of mice to which nothing was administered, during the 8-week HFDT feeding period. In addition, a normal diet was given to individual male laboratory mice (C57BL/6J) for 8 weeks to prepare control mice.

[2] = system: NASH mice (methionine-choline-deficient diet, MCDD); experiment: NASH treatment study in MCDD-fed NASH mice; assay type: in vivo, mice (C57BL/6J); settings: NASH mice given MCDD for 8 weeks; intraperitoneal 2.5 mg/kg/day three times a week; FIG. 3
Experimental: Next, an animal experiment was performed on NASH mice that were produced by feeding a methionine-choline-deficient diet (MCDD).

DU145 cells = experiment: Cancer treatment study in nude mice implanted with DU145 tumors; assay type: in vivo, nude mice (BALB/c-slc-nu/nu mice); settings: intraperitoneal 2.5 mg/kg/day 5 times a week for 9 weeks, versus control mice
Experimental: An animal experiment was performed using mice transplanted with cancer cells to test the therapeutic effects of the compounds according to the present invention on cancer.
A first tumor (DU145 cells) with Matrigel plug was implanted in the middle of the upper back of nude mice (BALB/c-slc-nu/nu mice).
Five weeks after the first implantation, a second tumor (DU145 cells) was implanted in the middle of the left and right sides of the back of the nude mice.
Intraperitoneal administration of a compound according to the present invention, H-77, at a dose of 2.5 mg/kg/day and a frequency of 5 times a week was started 6 weeks after the first implantation, at which the first tumor became measurable (at this timing, the second tumor was so small in size and not measurable), and was continued for 9 weeks. No compound was administered to a group of mice to prepare control mice.
The volume of the second tumor was so small and not measurable at the beginning of administration of the compound. Therefore, the result from the second tumor is expressed in volume (mm^3), but not in ratio.

T1 sequence (Q13526 whole entry): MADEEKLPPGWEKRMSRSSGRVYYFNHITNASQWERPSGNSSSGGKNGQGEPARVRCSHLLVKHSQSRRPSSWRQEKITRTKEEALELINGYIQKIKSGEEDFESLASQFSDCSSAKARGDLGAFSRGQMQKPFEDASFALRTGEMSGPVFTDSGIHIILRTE

Pin1 inhibition activity (Pin1)	SMILES	also measured
+	O=C(Nc1ccc(OCc2ccccc2)cc1C(=O)O)c1ccc2ccccc2n1 [Compound H-339]	
+	O=C(COc1ccc2ccccc2c1)Nc1ccc(OCc2ccccc2)cc1C(=O)O [Compound H-362]	
+	O=C(Nc1ccc(OCc2ccccc2)cc1C(=O)O)c1cccc(Oc2ccccc2)c1 [Compound H-363]	
+	O=C(O)c1cc(OCc2ccccc2)ccc1NC(=O)c1cccc2ccccc12 [Compound H-370]	
+	O=C(Nc1ccc(OCc2ccc3ccccc3c2)cc1C(=O)O)c1ccc2ccccc2c1 [Compound H-371]	
+	O=C(O)c1cc(OCc2ccc3ccccc3c2)ccc1NS(=O)(=O)c1ccc2ccccc2c1 [Compound H-376]	
+	Nc1ccc(OCc2ccc3ccccc3c2)cc1C(=O)O [Compound H-443]	

The remaining lines, values behind:

SMILES	Pin1 inhibition activity (Pin1)	also measured
COC(=O)c1cc(OCc2ccccc2)ccc1NC(=O)c1ccc2ccccc2c1 [Compound H-68]	+	
O=C(Nc1ccc(OCc2ccccc2)cc1C(=O)O)c1ccc2ccccc2c1 [Compound H-77]	+++	liver weight ([1]; NASH mice given HFDT for 8 weeks, FIG. 1 (A)): increase in liver weight was reduced; blood AST (GOT) concentration ([1]; NASH mice given HFDT for 8 weeks, FIG. 1 (B)): AST value was decreased; fat accumulation in liver tissue (microscopic observation of sections) ([1]; NASH mice given HFDT, FIG. 2): reduced fat accumulation; hepatic fibrosis (liver tissue sections with Azan staining) [2]: hepatic fibrosis was significantly inhibited; tumor volume ratio of the first tumor (DU145 cells; first DU145 tumor, FIG. 4 (A)): tumor size growth was suppressed; volume of the second tumor (DU145 cells; second DU145 tumor, FIG. 4 (B)): tumor size growth was suppressed
COC(=O)c1cc(OCc2ccc3ccccc3c2)ccc1NC(C)=O [Compound H-182]	++	
CC(=O)Nc1ccc(OCc2ccccc2)cc1C(=O)O [Compound H-296, reference compound]	−	
CC(=O)Nc1ccc(OCc2ccc3ccccc3c2)cc1C(=O)O [Compound H-297]	+++	
COC(=O)c1cc(OCc2ccc3ccccc3c2)ccc1N [Compound H-300]	+++	
O=C(O)c1cc(OCc2ccccc2)ccc1NS(=O)(=O)c1ccc2ccccc2c1 [Compound H-338]	+	
O=C1C=CC(=O)c2c(O)cccc21 [Juglone, reference compound]		death of the mice during the study ([1]; NASH mice given HFDT for 8 weeks): all dead within 8 weeks
